Measured values from patent publication US20010056063A1, “METHOD OF TREATING OR PREVENTING TYPE 1 DIABETES BY ORAL ADMINISTRATION OF INSULIN” (priority 1990, published 2001).
Entries after “also recorded” stand apart in the source; their conditions may differ.

Key:
Format in all cases: in vivo, mouse
[1] = system: NOD (non-obese diabetic) mice; experiment: Spontaneous diabetes in NOD mice after oral feeding (Examples 1 and 3); details: for development of diabetes: FIG. 1
Source text: NOD (non-obese diabetic mice) were obtained from Taconic Laboratories (Germantown, Mass.) at 4 weeks of age. There were a total of 30 animals in each of the groups mentioned below at the beginning of the experiment. At 4 ½ weeks of age, animals were orally administered Porcine insulin (Novo Laboratories, Danbury, Conn.). Each animal received two treatments orally twice a week until 9 weeks of age. The mice were fed either saline (control) or 10 micrograms, 100 micrograms, or 1 milligram of Porcine insulin. The animals were fed (gavaged) with an 18 gauge ball-point needle (Popper and Sons, Inc., New Hyde Park, N.Y.). Beginning at 10 weeks the animals were then fed once a week for a total of 33 weeks. Beginning at 12 weeks the urine was tested weekly for the presence of glucose using Glucosuria test tape (Eli Lilly, Indianapolis, Ind.). If an animal tested 3+or higher on the glucose urine test, a serum sample was taken and blood glucose measured using a glucose analyzer (Beckman). If the blood glucose was 220 or higher, the animals were classified as diabetic and then sacrificed. An identical experiment to Example 1 was performed in which NOD mice (14-17 per group) were fed one homogenized pancreas derived from Lewis rats in 0.5 mls PBS. […] Nonetheless, the effect is not as dramatic and complete as that seen in the animals fed insulin.

NOD mice [2] = experiment: Glucose post oral insulin in fasting 7 week NOD mice (Example 2); details: for endocrinologic effect on blood glucose: oral 1 mg, over 24 hours
Experimental: In order to determine whether any endocrinologic (i.e. direct lowering of blood sugar) effects occurred following the feeding of insulin, 7 week old NOD mice (5 mice per group) were fed 1 mg of porcine insulin or 1 mg of myelin basic protein (obtained from Pel Freez, Rogers, Ark.) as a control protein. Blood glucose was then measured over the next 24 hour period. As a positive control, a separate group of animals were injected subcutaneously with 20 micrograms of Porcine insulin. All animals were kept in the fasting state.

NOD mice [3] = experiment: Aerosol administration of insulin on diabetes in NOD mice (Example 4); details: aerosol by nebulizer, 0 to 1 mg
Experimental: Insulin (0 to 1 mg as in Examples 1 and 2) will be administered to NOD mice as described above in Examples 1 and 2 except in aerosol form by nebulizer.

NOD mice [4] = experiment: Insulitis in insulin-fed NOD mice (preliminary experiments); details: fed 1 mg, vs PBS-fed NOD mice; data not shown
Source text: Therefore, oral administration of insulin to NOD mice appeared to be affecting the infiltration of immune system cells into the pancreas and thus halting disease progression by preserving beta cell function.

NOD mice [5] = experiment: Treatment of initial stages of diabetes in hyperglycemic NOD mice (Example 5); details: oral and aerosol, 0 to 1 mg, hyperglycemic NOD mice from weeks 12-20
Experimental: Insulin (0 to 1 mg as in Examples 1 and 2) will be administered to NOD mice which are suffering from hyperglycemia in an oral and aerosol form. The treatments will begin by weeks 12 -20 of age, by which the serum glucose levels are at hyperglycemic concentrations in a certain percentage of animals prior to onset of diabetes.

Substance | treated animals that failed to develop diabetes ([1]; oral 1 mg (highest dose)) [%] | development of diabetes ([1]; oral 1 mg, twice a week until 9 weeks of age, then once a week) | development of diabetes ([1]; oral 10 microgram group, dose response fashion) | development of diabetes ([1]; oral 100 microgram group, dose response fashion) | incidence / development of diabetes ([1]; oral, all doses tested (10 micrograms, 100 micrograms, 1 mg)) | endocrinologic effect on blood glucose (NOD mice [2]; FIG. 2) | period over which the glucose decrease persisted (NOD mice [2]; subcutaneous 20 micrograms) [h] | decrease in blood glucose level (NOD mice [2]; subcutaneous 20 micrograms, FIG. 2) | prevention of symptoms (hyperglycemia) of Type 1 diabetes (NOD mice [3]) | inflammatory immune system cells surrounding the pancreas (insulitis) (NOD mice [4]) | beta cell function (NOD mice [5]) | serum glucose concentrations (NOD mice [5])
Porcine insulin | 100 | none of the mice went on to develop diabetes; also recorded: no diabetes developed; also recorded: None of the animals developed diabetes | diabetes developed | diabetes developed | lower incidence of diabetes at all doses; also recorded: reduced the numbers of these mice which subsequently went on to develop diabetes | no drop in the blood glucose; also recorded: no endocrinologic (metabolic) effects | 4 | approximately 80 mg % | effective in preventing the manifestation of symptoms | fewer inflammatory immune system cells surrounding the pancreas | preservation of beta cell function | reduction in serum glucose concentrations to near normal levels
myelin basic protein |  |  |  |  |  | no drop in the blood glucose |  |  |  |  |  | 
